The values below come from US20230227838A1, “ENHANCED CELL SURVIVAL AGAINST BIOTIC AND ABIOTIC STRESSES THROUGH SALICYLICK ACID-INDUCED NPR1 CONDENSATES” (priority 2020, published 2023).

Assay [1] has as its system Psm ES4326/AvrRpt2-mediated cell death. Kind of assay: Cell death (conductivity/electrolyte leakage, trypan blue) after Psm ES4326/AvrRpt2 inoculation. The format is in vivo, Arabidopsis thaliana. The conditions noted are these: SA pretreatment at 0.5 and 1 mM; WT plants, not in npr1-2 mutant. How it is done: (§1) Chemical treatment, pathogen infection and cell death assays. […] At 2 days, the bacterial colonies were scored.
Trypan blue staining. Leaves of three-week-old Arabidopsis infected with Psm ES4326/AvrRpt2 were sampled at 1 dpi, boiled in 95% ethanol until completely bleached, followed by boiling for 3 min in a 1:1 mixture of 95% ethanol and staining solution (10 ml lactic acid, 10 ml glycerol, 10 g phenol and 10 mg trypan blue, dissolved in 10 ml DDW). The leaves were then de-stained in 2.5 g/ml chloral hydrate solution and transferred to 70% glycerol for subsequent imaging.

The subject of a further assay is Psm ES4326/AvrRpt2. Kind of assay: Bacterial growth assay in infected leaves. Conditions: SA pretreatment at 0.5 and 1 mM; WT plants, not in npr1-2 mutant. It counts as in vivo, Arabidopsis thaliana.
Text: as §1

Assay [2] has as its system cell death induced by heat shock, oxidative and DNA damage stresses. The conditions noted are these: 1 mM SA 24 hr before stress; WT, not in npr1-2. How it is done:
(§2) Chemical treatment, pathogen infection and cell death assays. For soil-grown Arabidopsis plants, SA treatment was carried out with spray at indicated concentrations. For seedlings grown vertically on solid 1/2 MS medium for 10-12 days, SA […] treatment (1 mM), with or without the proteasome inhibitor MG132 (50 μM), and protein synthesis […] inhibitor cycloheximide (100 μM) was done by submerging them in solutions for indicated periods. Unless otherwise stated, in N. benthamiana, SA treatment was done by infiltrating leaves 24 hr after agroinfiltration. SA pre-treatment of mature Arabidopsis was done by spray 24 hr before bacterial infection or cell death induction. For bacterial infections, Pseudomonas syringae pv. maculicola ES4326 carrying AvrRpt2 or AvrRpm1 effectors, and Pf Pf0-1 carrying functional AvrRps4 or non-functional AvrRps4KRVY-AAAA effectors were grown for 2 days on solid King's B medium supplemented with appropriate antibiotics. […] Bacteria were pressure infiltrated into mature leaves of three-week-old Arabidopsis plants and cell death or bacterial growth were assessed at indicated times post inoculation (hpi, hours post inoculation; dpi, days post inoculation). […]

Assay [3] has as its system cell death triggered by in planta expression of the effector, AvrRpt2. Conditions: SA treatment before dexamethasone induction. As for the experimental part:
as §2

For the next assay, the system named is ETI activated by RPS4. Kind of assay: Cell death after Pf Pf0-1/AvrRps4 inoculation (conductivity assay). It counts as in vivo, Arabidopsis thaliana. The conditions noted are these: SA/NPR1-mediated.
Text: as §1

In the next assay the test system is ubiquitinated proteins. In words: Accumulation of ubiquitinated proteins (α-Ub immunoblot of total protein). It counts as in vivo, Arabidopsis thaliana. The conditions noted are these: WT; absent in npr1-2; SA for 6 hr. How it is done: (§3) Protein analysis and IP. Recombinant protein analysis was performed using transient expression in N. benthamiana, or stable over-expression in transgenic Arabidopsis, or expression in E. coli. Total protein extraction from plants was performed by homogenizing leaf tissue in the plant extraction buffer [50 mM Tris-HCl (pH 7.5), 150 mM NaCl, 5 mM EDTA, 0.2% Triton X-100, 0.2% Nonidet P-40] supplemented with 1 mM PMSF, 100 μM MG132, and EDTA-free protease inhibitor cocktail (Roche). For ubiquitinated protein analysis in plants, 100 μM of DUB (deubiquitinase) inhibitor (LifeSensors) and 10 mM NEM were added. Next, the lysates were cleared by centrifugation at 14,000 rpm for 15 min followed by filtering through a 0.2 μm filter. […] Pull-downs or IP experiments were done on total protein extracts by incubating protein samples in the lysis buffer overnight with indicated affinity tag or antibody conjugated to agarose or magnetic beads: GFP-trap agarose beads (Chromotek) for GFP fusions; RFP-trap agarose beads (Chromotek) for mCherry fusions; anti-HA magnetic beads (ThermoFisher) for HA tag fusions; anti-DYKDDDDK coupled magnetic agarose (ThermoFisher) for FLAG tag fusions; and glutathione magnetic agarose (ThermoFisher) for GST fusions. Unless otherwise indicated, after pull-down/IP, beads were washed 3 times and proteins were eluted by boiling in the 2×SDS sample buffer. […]
A general note: A western blot detects proteins with antibodies after separation by electrophoresis.

A further assay relates to EDS1. Kind of assay: Stability (cycloheximide) and ubiquitination of EDS1. It counts as in vivo, Arabidopsis thaliana. Conditions: WT. How it is done:
as §1
as §3, with “fusions.” for “fusions. Unless otherwise indicated, after pull-down/IP, beads were washed 3 times and proteins were eluted by boiling in the 2×SDS sample buffer.”

The next assay concerns WRKY70-GFP. In words: Stability and ubiquitination of WRKY70-GFP. It counts as in vivo, Arabidopsis thaliana. As for the experimental part: as §1
as §3, with “fusions.” for “fusions. Unless otherwise indicated, after pull-down/IP, beads were washed 3 times and proteins were eluted by boiling in the 2×SDS sample buffer.”

As for `O=C(O)c1ccccc1O` [SA, salicylic acid], the “Psm ES4326/AvrRpt2-mediated cell death” value in assay [1] is recorded as “fully suppress”. The pathogen growth result in the assay with Psm ES4326/AvrRpt2 is given as “increased pathogen growth”. In addition, the “cell death induced by heat shock, oxidative and DNA damage stresses” value in assay [2] is listed as “significantly suppressed cell death”. Besides, the “cell death triggered by in planta expression of AvrRpt2” value in assay [3] was “protect against cell death”. In the assay with ETI activated by RPS4, the “ETI activated by RPS4 (effector AvrRps4)” value is on record as “inhibition”. Further, the “accumulation of ubiquitinated proteins” value with ubiquitinated proteins was “concentration-dependent accumulation of ubiquitinated proteins”. For the same compound, the “ubiquitination of EDS1” value in the assay on EDS1 (1 mM SA for 6 hr, not in npr1-2 nor eds1-2) was “increased SA-mediated ubiquitination of EDS1”. Moreover, the “amount of EDS1 in the absence of new protein synthesis” value in the assay on EDS1 (1 mM SA 4 hr then 100 μM cycloheximide, 16 hours co-incubation, unchanged in npr1-2) was “significantly decreased”. Also, in the assay with WRKY70-GFP (1 mM SA for 24 h, WT, not npr1-2), the “ubiquitination of WRKY70-GFP” value is recorded as “increased ubiquitination of WRKY70-GFP”. In the assay on WRKY70-GFP (1 mM SA for 24 hr, NPR1- and proteasome-dependent), the WRKY70-GFP protein level entry is recorded as “reduced”.
